Source: US11572354B2, “Inhibitor of indoleamine 2,3-dioxygenase-1 and methods of manufacture and use thereof” (UNIVERSITY HEALTH NETWORK, priority 2018, dated 2023)
Read-outs that look alike come from different tables or passages of the source. Values belong to the compound of their own block, whether it stands above or below them.

Assays:
[1] = molecular target: T1, human IDO1 (Homo sapiens (Human), UniProt P14902); assay: IDO1 enzymatic inhibition assay; assay type: biochemical
[2] = molecular target: T1, human IDO1; assay: IDO1 inhibition in HEK293/IDO1 transfected cells; assay type: cell-based; details: HEK293/TRIPZ-IDO1 cells
[3] = molecular target: TDO2 (Homo sapiens, UniProt P48775); assay: TDO2 enzymatic inhibition assay; assay type: biochemical; details: 500 μM L-Tryptophan, means N≥3; read-out: TDO IC50
TDO2, sequence (P48775 whole entry, looked up): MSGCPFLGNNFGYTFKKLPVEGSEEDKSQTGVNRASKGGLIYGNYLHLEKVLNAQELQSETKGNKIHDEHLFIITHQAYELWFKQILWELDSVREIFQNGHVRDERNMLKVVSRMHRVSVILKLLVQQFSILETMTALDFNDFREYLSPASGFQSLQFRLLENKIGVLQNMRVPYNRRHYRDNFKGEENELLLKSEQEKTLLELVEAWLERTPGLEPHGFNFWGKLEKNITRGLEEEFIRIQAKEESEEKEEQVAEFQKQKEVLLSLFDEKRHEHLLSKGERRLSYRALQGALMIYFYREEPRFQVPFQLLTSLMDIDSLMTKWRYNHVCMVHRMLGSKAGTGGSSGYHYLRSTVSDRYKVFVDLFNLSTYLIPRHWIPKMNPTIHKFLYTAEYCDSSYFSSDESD

[4] = Tissue protein binding (micro-equilibrium dialysis); assay type: in vitro ADME, mice; details: 6 hours at 37° C.
[5] = Pharmacokinetics studies in mice (plasma and brain concentration); assay type: in vivo; details: for Kp at 0.5 h / Kp at 2 h: brain/plasma
Method: In order to assess the pharmacokinetics of the IDO1 inhibitors of the present application, two inhibitors were administered to mice at 20 mg/kg via PO (G29), or IP (G28). For a preliminary pharmacokinetic profile, three animals were sacrificed per time point at 30 minutes and two hours post-dose. For a full pharmacokinetic profile, three animals were sacrificed per time point at 15 minute, 30 minutes, 1, 2, 4, 6, 8, and 24 hours post-dose.
Blood samples were collected via cardiac puncture, the mice were perfused with phosphate buffered saline (PBS) and the brains were collected. The blood and brain samples were protein precipitated with ice-cold acetonitrile and the concentration of the test compound in the resulting supernatant was quantified using LC/MS/MS. For the full pharmacokinetic profile, the parameters were computed using the “PK” package with the R statistical computing software using a non-compartmental analysis.

[6] = recombinant human IDO1, 200 μM L-Tryptophan, means N≥3
[7] = 24 h after doxycycline induction, means N≥3

T1 sequence (P14902 whole entry): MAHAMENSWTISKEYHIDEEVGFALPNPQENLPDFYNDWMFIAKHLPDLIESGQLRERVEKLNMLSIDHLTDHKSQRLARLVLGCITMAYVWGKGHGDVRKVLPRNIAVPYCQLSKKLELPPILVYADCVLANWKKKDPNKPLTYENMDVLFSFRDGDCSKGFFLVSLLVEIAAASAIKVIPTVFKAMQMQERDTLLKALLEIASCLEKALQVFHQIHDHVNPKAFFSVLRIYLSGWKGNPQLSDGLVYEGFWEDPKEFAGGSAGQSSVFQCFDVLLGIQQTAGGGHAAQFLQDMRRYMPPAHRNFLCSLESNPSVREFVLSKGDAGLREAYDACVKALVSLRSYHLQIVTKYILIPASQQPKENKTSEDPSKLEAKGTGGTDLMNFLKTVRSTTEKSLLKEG

IC50 [1, 6]: 30000 nM
Compound: Brc1ccc2[nH]c(-c3cnc[nH]3)cc2c1 [Compound 6, 5-bromo-2-(1H-imidazol-5-yl)-1H-indole]

increase in potency versus compound 6 ([1]; IDO1 IC50, versus compound 6): two-fold
Compound: Brc1ccc2[nH]c(-c3cncn3Cc3ccccc3)cc2c1 [Compound 9a, 2-(1-benzyl-1H-imidazol-5-yl)-5-bromo-1H-indole]

IC50 [1, 6]: 21000 nM | EC50 [2, 7]: 4300 nM
Compound: COc1ccc(Cn2cncc2-c2cc3cc(Br)ccc3[nH]2)cc1 [Compound 9d, 5-bromo-2-(1-(4-methoxybenzyl)-1H-imidazol-5-yl)-1H-indole]

IC50 [3]: 158000 nM
Compound: Oc1ccccc1-c1cncn1Cc1cc2cc(Br)ccc2[nH]1 [Compound 10c, 2-(1-((5-bromo-1H-indol-2-yl)methyl)-1H-imidazol-5-yl)phenol]

fraction unbound at 6 h ([4]; pooled brain homogenate in PBS (1:3 m:v), pooled mouse brain homogenized with PBS (1:3), read-out: % FU Brain): 0.0161 | fraction unbound at 6 h ([4]; pooled mouse plasma, read-out: fu,plasma / % FU Plasma): 0.0117 | Tissue Concentration Plasma Mean ([5]; 20 mg/kg IP, 0.25 hr): 1880 ng/mL | Tissue Concentration Plasma Mean ([5]; 20 mg/kg IP, 0.5 hr): 1840 ng/mL | Tissue Concentration Plasma Mean ([5]; 20 mg/kg IP, 1 hr): 1410 ng/mL | Tissue Concentration Plasma Mean ([5]; 20 mg/kg IP, 2 hr): 562 ng/mL | Tissue Concentration Plasma Mean ([5]; 20 mg/kg IP, 4 hr): 133 ng/mL | Tissue Concentration Plasma Mean ([5]; 20 mg/kg IP, 6 hr): BQL | Tissue Concentration Plasma Mean ([5]; 20 mg/kg IP, 8 hr): BQL | AUC(0-inf) ([5]; mouse, 20 mg/kg IP, Brain): 14200 ng·h/mL | AUC(0-t) ([5]; mouse, 20 mg/kg IP, Brain): 9870 ng·h/mL | Cmax ([5]; mouse, 20 mg/kg IP, Brain): 4020 ng/mL | Tmax ([5]; mouse, 20 mg/kg IP, Brain): 30 min | half-life ([5]; mouse, 20 mg/kg IP, Brain): 142 min | AUC(0-inf) ([5]; mouse, 20 mg/kg IP, Plasma): 2920 ng·h/mL | AUC(0-t) ([5]; mouse, 20 mg/kg IP, Plasma): 2910 ng·h/mL | Cmax ([5]; mouse, 20 mg/kg IP, Plasma): 1880 ng/mL | Tmax ([5]; mouse, 20 mg/kg IP, Plasma): 15 min | half-life ([5]; mouse, 20 mg/kg IP, Plasma): 49.8 min | concentration at 0.25 h ([5]; mouse, brain, ip, 20 mg/kg, 20 mg/kg IP, 0.25 hr, read-out: Tissue Concentration Brain Mean): 1660 ng/g | concentration at 0.5 h ([5]; mouse, brain, ip, 20 mg/kg, 20 mg/kg IP, 0.5 hr, read-out: Tissue Concentration Brain Mean): 4020 ng/g | concentration at 1 h ([5]; mouse, brain, ip, 20 mg/kg, 20 mg/kg IP, 1 hr, read-out: Tissue Concentration Brain Mean): 3520 ng/g | concentration at 2 h ([5]; mouse, brain, ip, 20 mg/kg, 20 mg/kg IP, 2 hr, read-out: Tissue Concentration Brain Mean): 2760 ng/g | concentration at 4 h ([5]; mouse, brain, ip, 20 mg/kg, 20 mg/kg IP, 4 hr, read-out: Tissue Concentration Brain Mean): 1370 ng/g | concentration at 6 h ([5]; mouse, brain, ip, 20 mg/kg, 20 mg/kg IP, 6 hr, read-out: Tissue Concentration Brain Mean): 552 ng/g | concentration at 8 h ([5]; mouse, brain, ip, 20 mg/kg, 20 mg/kg IP, 8 hr, read-out: Tissue Concentration Brain Mean): 510 ng/g | IC50 ([1]; recombinant human IDO1): 310 nM | IC50 [1, 6]: 309 nM | EC50 [2]: 470 nM | EC50 [2, 7]: 467 nM
Compound: Brc1ccc2[nH]c(Cn3cncc3-c3ccc[nH]3)cc2c1 [Compound G28, 2-((5-(1H-pyrrol-2-yl)-1H-imidazol-1-yl)methyl)-5-bromo-1H-indole]

concentration at 0.5 h ([5]; mouse, brain, po, 20 mg/kg, 20 mg/kg PO, 0.5 Hr, individual mouse M1, read-out: Brain concentration M1): 2390 ng/mL | concentration at 0.5 h ([5]; mouse, brain, po, 20 mg/kg, 20 mg/kg PO, 0.5 Hr, individual mouse M2, read-out: Brain concentration M2): 869 ng/mL | concentration at 0.5 h ([5]; mouse, brain, po, 20 mg/kg, 20 mg/kg PO, 0.5 Hr, individual mouse M3, read-out: Brain concentration M3): 2560 ng/mL | concentration at 0.5 h ([5]; mouse, brain, po, 20 mg/kg, 20 mg/kg PO, 0.5 Hr, read-out: Brain concentration Mean): 1940 ng/mL | concentration at 2 h ([5]; mouse, brain, po, 20 mg/kg, 20 mg/kg PO, 2 Hr, individual mouse M4, read-out: Brain concentration M4): 3450 ng/mL | concentration at 2 h ([5]; mouse, brain, po, 20 mg/kg, 20 mg/kg PO, 2 Hr, individual mouse M5, read-out: Brain concentration M5): 2050 ng/mL | concentration at 2 h ([5]; mouse, brain, po, 20 mg/kg, 20 mg/kg PO, 2 Hr, read-out: Brain concentration Mean): 2750 ng/mL | Kp at 0.5 h ([5]; mouse, po, 20 mg/kg, 20 mg/kg PO, 0.5 Hr, individual mouse M1, read-out: B/P Ratio M1): 0.9 | Kp at 0.5 h ([5]; mouse, po, 20 mg/kg, 20 mg/kg PO, 0.5 Hr, individual mouse M2, read-out: B/P Ratio M2): 0.5 | Kp at 0.5 h ([5]; mouse, po, 20 mg/kg, 20 mg/kg PO, 0.5 Hr, individual mouse M3, read-out: B/P Ratio M3): 0.9 | Kp at 0.5 h ([5]; mouse, po, 20 mg/kg, 20 mg/kg PO, 0.5 Hr, read-out: B/P Ratio Mean): 0.8 | Kp at 2 h ([5]; mouse, po, 20 mg/kg, 20 mg/kg PO, 2 Hr, individual mouse M4, read-out: B/P Ratio M4): 5.5 | Kp at 2 h ([5]; mouse, po, 20 mg/kg, 20 mg/kg PO, 2 Hr, individual mouse M5, read-out: B/P Ratio M5): 5 | Kp at 2 h ([5]; mouse, po, 20 mg/kg, 20 mg/kg PO, 2 Hr, read-out: B/P Ratio Mean): 5.3 | concentration at 0.5 h ([5]; mouse, plasma, po, 20 mg/kg, 20 mg/kg PO, 0.5 Hr, individual mouse M1, read-out: Plasma concentration M1): 2660 ng/mL | concentration at 0.5 h ([5]; mouse, plasma, po, 20 mg/kg, 20 mg/kg PO, 0.5 Hr, individual mouse M2, read-out: Plasma concentration M2): 1610 ng/mL | concentration at 0.5 h ([5]; mouse, plasma, po, 20 mg/kg, 20 mg/kg PO, 0.5 Hr, individual mouse M3, read-out: Plasma concentration M3): 2740 ng/mL | concentration at 0.5 h ([5]; mouse, plasma, po, 20 mg/kg, 20 mg/kg PO, 0.5 Hr, read-out: Plasma concentration Mean): 2330 ng/mL | concentration at 2 h ([5]; mouse, plasma, po, 20 mg/kg, 20 mg/kg PO, 2 Hr, individual mouse M4, read-out: Plasma concentration M4): 629 ng/mL | concentration at 2 h ([5]; mouse, plasma, po, 20 mg/kg, 20 mg/kg PO, 2 Hr, individual mouse M5, read-out: Plasma concentration M5): 408 ng/mL | concentration at 2 h ([5]; mouse, plasma, po, 20 mg/kg, 20 mg/kg PO, 2 Hr, read-out: Plasma concentration Mean): 519 ng/mL | IC50 [1, 6]: 230 nM | EC50 [2, 7]: 250 nM
Compound: Fc1ccc2[nH]c(Cn3cncc3-c3ccc[nH]3)cc2c1 [Compound G29, 2-((5-(1H-pyrrol-2-yl)-1H-imidazol-1-yl)methyl)-5-fluoro-1H-indole]
